Patent US20260001928A1 (CORTERIA PHARMACEUTICALS, priority 2022, published 2026)
Blank lines part the entries; values can stand above or below the compound they belong to. *1 amine or outer side, *2 acyl side, *3 side chain or, on linkers, in order; H or OH if unused. Where a SMILES comes first, the peptide text is derived from it. Side-chain parts run from the residue outwards. [ ]: non-standard residue; d: D form. The star is where a group is joined. C18 diacid = O=C(O)CCCCCCCCCCCCCCCCC(=O)*; C16 diacid = O=C(O)CCCCCCCCCCCCCCC(=O)*; γGlu = O=C(O)[C@H](CCC(=O)[*:2])N[*:1]; C14 diacid = O=C(O)CCCCCCCCCCCCC(=O)*; NMeI = CC[C@H](C)[C@H](NC)C(=O)O; Ac5c = NC1(C(=O)O)CCCC1; Nva = CCC[C@H](N)C(=O)O; Pentanoyl = CCCCC(=O)*; AEEA = NCCOCCOCC(=O)O; Aib = CC(C)(N)C(=O)O

Key:
human CRF2a receptor = molecular target: T1, human CRF2a receptor (Homo sapiens, UniProt Q13324); assay: Activity at human CRF2a receptor, cAMP functional assay in TeloHEAC cells; assay type: cell-based; conditions: TeloHEAC cells stably expressing human CRF2a receptor, relative to urocortin 2 (100 nM = 100%)
T1 construct: expressed in transfected cells; host or cells: TeloHEAC cells
T1 sequence (Q13324 1-411): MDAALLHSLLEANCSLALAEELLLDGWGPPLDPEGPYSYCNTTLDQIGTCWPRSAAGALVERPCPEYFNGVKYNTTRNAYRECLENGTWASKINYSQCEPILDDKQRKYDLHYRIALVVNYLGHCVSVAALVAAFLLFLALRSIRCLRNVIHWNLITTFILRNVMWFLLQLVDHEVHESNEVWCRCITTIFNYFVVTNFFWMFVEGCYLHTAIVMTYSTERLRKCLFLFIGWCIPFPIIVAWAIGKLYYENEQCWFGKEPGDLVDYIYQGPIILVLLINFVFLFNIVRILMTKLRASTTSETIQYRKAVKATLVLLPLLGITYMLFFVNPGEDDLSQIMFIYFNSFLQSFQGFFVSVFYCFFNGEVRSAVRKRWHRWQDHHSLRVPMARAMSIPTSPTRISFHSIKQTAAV
How it was run: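 TeloHEAC cells stably expressing human CRF2a (10000 cells/well, suspended in HBSS/20 mM HEPES with 2 mM IBMX) were exposed to compounds for 30 min at 37 °C. cAMP was read as the 665/620 nm fluorescence ratio after 1 h at room temperature. EC50 was derived relative to 100 nM urocortin 2, set as 100%.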

CFR1R receptor = molecular target: T2, CFR1R receptor (Homo sapiens, UniProt P34998); assay: Activity at anti-target CFR1R receptor, cAMP assay in CRF1R-overexpression CHO-K1 cells; assay type: cell-based; conditions: 100% = Sauvagine at 100 nM; for EC50: cAMP
T2 construct: host or cells: CHO-K1 (clone 2)
T2 sequence (P34998 24-415): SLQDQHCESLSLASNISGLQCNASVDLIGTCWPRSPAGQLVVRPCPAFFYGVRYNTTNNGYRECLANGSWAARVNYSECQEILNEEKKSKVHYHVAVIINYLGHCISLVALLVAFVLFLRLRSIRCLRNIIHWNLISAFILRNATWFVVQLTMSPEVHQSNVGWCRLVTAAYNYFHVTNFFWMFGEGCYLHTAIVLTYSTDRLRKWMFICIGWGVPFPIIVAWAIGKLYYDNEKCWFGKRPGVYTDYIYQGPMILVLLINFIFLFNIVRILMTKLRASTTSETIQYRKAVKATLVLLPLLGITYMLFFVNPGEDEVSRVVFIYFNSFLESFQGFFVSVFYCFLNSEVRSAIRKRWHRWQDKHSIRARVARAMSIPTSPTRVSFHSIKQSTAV
How it was run: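 Uses frozen stocks of CHO-K1 clone 2 cells overexpressing human CRF1R, plated at 4000 cells/well final, with cAMP measured by the same protocol as the TeloHAEC line. Full-activation control: 100 nM Sauvagine.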

Structure (SMILES): CCCCC(=O)N[C@H](C(=O)N[C@@H](CC(C)C)C(=O)N[C@@H](CO)C(=O)N[C@@H](CC(C)C)C(=O)N[C@@H](CC(=O)O)C(=O)N[C@@H](C(=O)N1CCC[C@H]1C(=O)N[C@H](C(=O)N[C@@H](CCCCN)C(=O)N[C@@H](CC(C)C)C(=O)N[C@@H](CCCCNC(=O)CC[C@H](NC(=O)CCCCCCCCCCCCCCC(=O)O)C(=O)O)C(=O)N[C@@H](CCC(N)=O)C(=O)N[C@H](C(=O)N[C@@H](CC(C)C)C(=O)N[C@@H](CC(C)C)C(=O)N[C@@H](CCCCN)C(=O)N[C@@H](CCC(N)=O)C(=O)N[C@@H](CCC(=O)O)C(=O)N[C@@H](CCCNC(=N)N)C(=O)N[C@@H](CCC(N)=O)C(=O)N[C@@H](CCCCN)C(=O)N[C@@H](CCCCN)C(=O)N[C@@H](CCC(N)=O)C(=O)N[C@@H](CCCNC(=N)N)C(=O)N[C@@H](CCC(=O)O)C(=O)N[C@@H](CCC(N)=O)C(=O)N[C@@H](C)C(=O)N[C@@H](CCC(=O)O)C(=O)N[C@@H](CCCCN)C(=O)N[C@@H](CC(N)=O)C(=O)N[C@@H](CCCCN)C(=O)N[C@@H](CCC(N)=O)C(=O)N[C@H](C(=O)N[C@@H](CC(C)C)C(=O)N[C@@H](CCC(=O)O)C(=O)N[C@@H](CCC(N)=O)C(=O)N[C@H](C(N)=O)C(C)C)[C@@H](C)CC)[C@@H](C)CC)[C@@H](C)CC)C(C)C)C(C)C [compound 8] (Pentanoyl-VLSLD[dV]PIKLK([γGlu-C16 diacid])QILLKQERQKKQREQAEKNKQILEQV-NH2)
EC50 (human CRF2a receptor): 0.14 nM | Emax (% I) (CFR1R receptor): 50 % I

Structure (SMILES): CC[C@H](C)[C@H](NC(C)=O)C(=O)N[C@H](C(=O)N[C@@H](CC(C)C)C(=O)N[C@@H](CO)C(=O)N[C@@H](CC(C)C)C(=O)N[C@@H](CC(=O)O)C(=O)N[C@@H](C(=O)N1CCC[C@H]1C(=O)N[C@H](C(=O)N[C@@H](CCCCN)C(=O)N[C@@H](CC(C)C)C(=O)N[C@@H](CCCCNC(=O)CC[C@H](NC(=O)CCCCCCCCCCCCCCC(=O)O)C(=O)O)C(=O)N[C@@H](CCCCN)C(=O)N[C@H](C(=O)N[C@@H](CC(C)C)C(=O)N[C@@H](CC(C)C)C(=O)N[C@@H](CCC(=O)O)C(=O)N[C@@H](CCC(N)=O)C(=O)N[C@@H](CCC(=O)O)C(=O)N[C@@H](CCCCN)C(=O)N[C@@H](CCC(N)=O)C(=O)N[C@@H](CCCCN)C(=O)N[C@@H](CCCCN)C(=O)N[C@@H](CCC(N)=O)C(=O)N[C@@H](CCCNC(=N)N)C(=O)N[C@@H](CCC(=O)O)C(=O)N[C@@H](CCC(N)=O)C(=O)N[C@@H](C)C(=O)N[C@@H](CCC(=O)O)C(=O)N[C@H](C(=O)N[C@@H](CC(N)=O)C(=O)NC1(C(=O)N[C@@H](CCC(N)=O)C(=O)N[C@H](C(=O)N[C@@H](CC(C)C)C(=O)N[C@@H](C)C(=O)N[C@@H](CCC(N)=O)C(=O)N[C@H](C(N)=O)C(C)C)[C@@H](C)CC)CCCC1)[C@@H](C)O)[C@@H](C)CC)[C@@H](C)CC)C(C)C)C(C)C [compound 60] (Ac-IVLSLD[dV]PIKLK([γGlu-C16 diacid])KILLEQEKQKKQREQAETN[Ac5c]QILAQV-NH2)
EC50 (human CRF2a receptor): 0.34 nM | Emax (% I) (CFR1R receptor): 5 % I | EC50 (CFR1R receptor): > 250 nM

Next, values leading:

EC50 (human CRF2a receptor): 0.8 nM | Emax (% I) (CFR1R receptor): 6 % I | EC50 (CFR1R receptor): > 250 nM
Structure (SMILES): CCCCC(=O)N[C@H](C(=O)N[C@@H](CC(C)C)C(=O)N[C@@H](CO)C(=O)N[C@@H](CC(C)C)C(=O)N[C@@H](CC(=O)O)C(=O)N[C@@H](C(=O)N1CCC[C@H]1C(=O)N[C@H](C(=O)N[C@@H](CCCCN)C(=O)N[C@@H](CC(C)C)C(=O)N[C@@H](CCCCNC(=O)CC[C@H](NC(=O)CCCCCCCCCCCCCCC(=O)O)C(=O)O)C(=O)N[C@@H](CCCCN)C(=O)N[C@H](C(=O)N[C@@H](CC(C)C)C(=O)N[C@@H](CC(C)C)C(=O)N[C@@H](CCC(=O)O)C(=O)N[C@@H](CCC(N)=O)C(=O)N[C@@H](CCC(=O)O)C(=O)N[C@@H](CCCCN)C(=O)N[C@@H](CCC(N)=O)C(=O)N[C@@H](CCCCN)C(=O)N[C@@H](CCCCN)C(=O)N[C@@H](CCC(N)=O)C(=O)N[C@@H](CCCNC(=N)N)C(=O)N[C@@H](CCC(=O)O)C(=O)N[C@@H](CCC(N)=O)C(=O)N[C@@H](C)C(=O)N[C@@H](CCC(=O)O)C(=O)N[C@H](C(=O)N[C@@H](CC(N)=O)C(=O)N[C@H](C(=O)N[C@@H](CCC(N)=O)C(=O)N[C@H](C(=O)N[C@@H](CC(C)C)C(=O)N[C@@H](C)C(=O)N[C@@H](CCC(N)=O)C(=O)N[C@H](C(N)=O)C(C)C)[C@@H](C)CC)C(C)C)[C@@H](C)O)[C@@H](C)CC)[C@@H](C)CC)C(C)C)C(C)C [compound 81] (Pentanoyl-VLSLD[dV]PIKLK([γGlu-C16 diacid])KILLEQEKQKKQREQAETNVQILAQV-NH2)

EC50 (human CRF2a receptor): 0.87 nM | Emax (% I) (CFR1R receptor): 10 % I | EC50 (CFR1R receptor): > 250 nM
Structure (SMILES): CCC[C@H](NC(=O)[C@H](CC(N)=O)NC(=O)[C@@H](NC(=O)[C@H](CCC(=O)O)NC(=O)[C@H](C)NC(=O)[C@H](CCC(N)=O)NC(=O)[C@H](CCC(=O)O)NC(=O)[C@H](CCCNC(=N)N)NC(=O)[C@H](CCC(N)=O)NC(=O)[C@H](CCCCN)NC(=O)[C@H](CCCCN)NC(=O)[C@H](CCC(N)=O)NC(=O)[C@H](CCCCN)NC(=O)[C@H](CCC(=O)O)NC(=O)[C@H](CCC(N)=O)NC(=O)[C@H](CCC(=O)O)NC(=O)[C@H](CC(C)C)NC(=O)[C@H](CC(C)C)NC(=O)[C@@H](NC(=O)[C@H](CCCCN)NC(=O)[C@H](CCCCNC(=O)COCCOCCNC(=O)COCCOCCNC(=O)CC[C@H](NC(=O)CCCCCCCCCCCCCCCCC(=O)O)C(=O)O)NC(=O)[C@H](CC(C)C)NC(=O)[C@H](CCCCN)NC(=O)[C@@H](NC(=O)[C@@H]1CCCN1C(=O)[C@H](NC(=O)[C@H](CC(=O)O)NC(=O)[C@H](CC(C)C)NC(=O)[C@H](CO)NC(=O)[C@H](CC(C)C)NC(=O)[C@@H](NC(=O)[C@@H](NC(C)=O)[C@@H](C)CC)C(C)C)C(C)C)[C@@H](C)CC)[C@@H](C)CC)[C@@H](C)O)C(=O)N[C@@H](CCC(N)=O)C(=O)N[C@H](C(=O)N[C@@H](CC(C)C)C(=O)N[C@@H](C)C(=O)N[C@@H](CCC(N)=O)C(=O)N[C@H](C(N)=O)C(C)C)[C@@H](C)CC [compound 105] (Ac-IVLSLD[dV]PIKLK([AEEA-AEEA-γGlu-C18 diacid])KILLEQEKQKKQREQAETN[Nva]QILAQV-NH2)

EC50 (human CRF2a receptor): 0.86 nM | Emax (% I) (CFR1R receptor): 10 % I | EC50 (CFR1R receptor): > 250 nM
Structure (SMILES): CC[C@H](C)[C@H](NC)C(=O)N[C@H](C(=O)N[C@@H](CC(C)C)C(=O)N[C@@H](CO)C(=O)N[C@@H](CC(C)C)C(=O)N[C@@H](CC(=O)O)C(=O)N[C@@H](C(=O)N1CCC[C@H]1C(=O)N[C@H](C(=O)N[C@@H](CCCCN)C(=O)N[C@@H](CC(C)C)C(=O)N[C@@H](CCCCNC(=O)CC[C@H](NC(=O)CCCCCCCCCCCCC(=O)O)C(=O)O)C(=O)N[C@@H](CCCCN)C(=O)N[C@H](C(=O)N[C@@H](CC(C)C)C(=O)N[C@@H](CC(C)C)C(=O)N[C@@H](CCC(=O)O)C(=O)N[C@@H](CCC(N)=O)C(=O)N[C@@H](CCC(=O)O)C(=O)N[C@@H](CCCCN)C(=O)N[C@@H](CCC(N)=O)C(=O)N[C@@H](CCCCN)C(=O)NC(C)(C)C(=O)N[C@@H](CCC(N)=O)C(=O)N[C@@H](CCCNC(=N)N)C(=O)N[C@@H](CCC(=O)O)C(=O)N[C@@H](CCC(N)=O)C(=O)N[C@@H](C)C(=O)N[C@@H](CCC(=O)O)C(=O)N[C@H](C(=O)N[C@@H](CC(N)=O)C(=O)NC(C)(C)C(=O)N[C@@H](CCC(N)=O)C(=O)N[C@H](C(=O)N[C@@H](CC(C)C)C(=O)N[C@@H](C)C(=O)N[C@@H](CCC(N)=O)C(=O)N[C@H](C(N)=O)C(C)C)[C@@H](C)CC)[C@@H](C)O)[C@@H](C)CC)[C@@H](C)CC)C(C)C)C(C)C [compound 177] (H-[NMeI]VLSLD[dV]PIKLK([γGlu-C14 diacid])KILLEQEKQK[Aib]QREQAETN[Aib]QILAQV-NH2)
